According to patent US20060005464A1, “Alkyl ethanolamine and biocide combination for hydrocarbon based fuels” (priority 2004, published 2006):

Experiments:
[1] = test system: mixed enteric bacteria (klebsiella pneumoniae, Proteus vulgarus, Citrobacter sp., Escherichia coli); experiment: Maximum growth slope of mixed enteric bacteria culture with GROTAN plus alkanolamine; format: cell-based; conditions: pH 9.0, TSB with emulsified oil, 24 hour
Method: A culture of mixed enteric bacteria (klebsiella pneumoniae, Proteus vulgarus, Citrobacter sp., Escherichia coli) at pH=9.0 in TSB (trypticase soy broth) media mixed with emulsified oil was prepared. A biocide, GROTAN® {78.5% 1,3,5-(2-hydroxyethyl)-s-triazine solution in water} as sold by Troy Chemicals (Florham Park, N.J.) was added at varying concentrations to the culture in combination with 2500 ppm of one of the four alkanolamines, N-butylaminoethanol (BAE), diethanolamine (DEA), diglycolamine (DGA) or 2-amino-2-methyl-1-propanol (AMP). Optical density measurements were taken every 15 minutes over a 24 hour time period (total of 96 data points). The maximum growth slope was calculated by taking the 10 contiguous data points that result in the highest growth slope (units of OD per time) over the 24 hour period. Those 10 data points were subjected to a least squares linear fit to calculate the maximum growth slope.

[2] = test system: Aureobasidium pullulans (ATCC 12536); experiment: End-point optical density of Aureobasidium pullulans with MIT/CMIT plus alkanolamine; format: cell-based; conditions: SAB media pH 8.5
Method: The impact of N-alkylalkanolamines on the control of the bacterial species Aureobasidium pullulans (ATCC 12536), a bacteria common in water-oil systems, was evaluated by measuring optical absorbance of samples treated with various concentrations of N-alkyl alkanolamines. […] SAB media at pH 8.5 (Tris buffer) was employed. Table 8 summarizes measurement of end-point optical density after 24 hours and 48 hours: […]

[3] = test system: Mycobacterium smegmatis (ATCC # 19420); experiment: End-point optical density of Mycobacterium smegmatis with N-alkyl alkanolamines (590 nm, 72 h); format: cell-based; conditions: 590 nm, after 72 hours, pH 8.5, tetrazolium dye
[4] = test system: Pseudomonas Aeruginosa (ATCC27853); experiment: Microtiter plate growth of Pseudomonas Aeruginosa with amines and GROTAN; format: cell-based; conditions: for growth of Pseudomonas Aeruginosa (Table 1 entry): pH 8.5, 24 hours; for enhancement in the biocidal effect of GROTAN: conclusion from Table 1
[5] = test system: Pseudomonas aeruginosa (ATCC 10145); experiment: Maximum growth slope of Pseudomonas aeruginosa with Proxel DB20 (BIT) plus alkanolamine; format: cell-based; conditions: pH 8.5, TSB, 24 hour
Method: A culture of Pseudomonas aeruginosa (ATCC 10145) at pH=8.5 in TSB (trypticase soy broth) media was prepared. The biocide Proxel DB20 (20% suspension of benzoisothiazolone (BIT) in water), as sold by Avecia, was added at varying concentrations in combination with 1000 ppm or 2000 ppm of the alkanolamines N-butylaminoethanol (BAE), 2-amino-2-methyl-1-propanol (AMP), dibutylaminoethanol (DBAE) or n-octylaminoethanol (OAE). Optical density measurements were taken every 15 minutes over a 24 hour time period (total of 96 data points). The maximum growth slope was calculated by taking the 10 contiguous data points that result in the highest growth slope (units of OD per time) over a 24 hour period. Those 10 data points were subjected to a least squares linear fit to calculate the maximum growth slope.

[6] = test system: Pseudomonas aeruginosa (ATCC 10145); experiment: Maximum growth slope of Pseudomonas aeruginosa with Bronopol plus alkanolamine; conditions: pH 8.5, TSB
[7] = test system: Mycobacterium marinum (ATCC # 19420); experiment: End-point optical density and MIC, Mycobacterium marinum (660 nm, 72 h); format: cell-based; conditions: pH 8.5; for end-point optical density: 660 nm, after 72 hours
Method: The impact of N-alkylalkanolamines on the control of the bacterial species Mycobacterium smegmatis (ATCC # 19420), a bacteria common in water-oil systems, was evaluated by measuring optical absorbance of samples treated with various alkyl ethanolaminesis DCHA=Dicyclohexylamine, OAE=Octylaminoethanol, ODEA=Octyldiethanolamine. Bacterial concentration was monitored indirectly via optical absorbance at 660 nm. The values reported are end-point optical densities in milliOD units after 48 hours. The media consisted of a standardized solution of clear nutrient broth (Middlebrook 7H10 with OADC supplement), amine, buffer (Tris) and water. The pH was adjusted initially to 8.5 with Tris buffer. The first column in the Table gives the amine concentration in ppm. The final two columns give data for cells that also contained 2 grams per liter of boric acid. In all cases, the values are averages of at least three replicates. The final row of the Table gives an estimate of the concentration range in which the amine in question starts to inhibit the growth of this bacterial species.
The impact of the N-alkylalkanolamines of Example 6 on the control of the bacterial species Mycobacterium marinum (ATCC # 19420), bacteria common in water-oil systems, was evaluated as described above in Example 6. Bacterial concentration in the experimental media was monitored indirectly via optical absorbance at 660 nm. The values reported are end-point optical densities in milliOD units after 72 hours. The media consisted of a standardized solution of clear nutrient broth (Middlebrook 7H10 with OADC supplement), amine, buffer (Tris) and water. The pH was adjusted initially to 8.5 with Tris buffer. The first column in the Table gives the amine concentration in ppm. In all cases, the values are averages of at least three replicates. The final row of the Table gives an estimate of the concentration range in which the amine in question starts to inhibit the growth of this bacterial species.

[8] = 2500 ppm amine plus GROTAN 650 ppm
[9] = 2500 ppm amine plus GROTAN 1650 ppm
[10] = amine 1000 ppm plus 50 ppm MIT/CMIT, 24 hours
[11] = amine 1000 ppm plus 50 ppm MIT/CMIT, 48 hours
[12] = amine 2000 ppm plus 50 ppm MIT/CMIT, 24 hours
[13] = amine 2000 ppm plus 50 ppm MIT/CMIT, 48 hours
[14] = amine 2000 ppm plus GROTAN 100 ppm
[15] = amine 2000 ppm plus GROTAN 250 ppm
[16] = amine 2000 ppm plus GROTAN 500 ppm
[17] = amine 2000 ppm plus GROTAN 1000 ppm
[18] = amine 2000 ppm plus GROTAN 2000 ppm
[19] = amine 4000 ppm plus GROTAN 100 ppm
[20] = amine 4000 ppm plus GROTAN 250 ppm
[21] = amine 4000 ppm plus GROTAN 500 ppm
[22] = amine 4000 ppm plus GROTAN 1000 ppm
[23] = amine 4000 ppm plus GROTAN 2000 ppm
[24] = amine 1000 ppm plus BIT 150 ppm
[25] = amine 1000 ppm plus BIT 250 ppm
[26] = amine 1000 ppm plus BIT 500 ppm
[27] = amine 2000 ppm plus BIT 150 ppm
[28] = amine 2000 ppm plus BIT 250 ppm
[29] = amine 2000 ppm plus BIT 500 ppm
[30] = amine 2000 ppm plus Bronopol 5 ppm
[31] = amine 2000 ppm plus Bronopol 15 ppm
[32] = amine 2000 ppm plus Bronopol 25 ppm
[33] = amine 2000 ppm plus Bronopol 35 ppm

CC(C)(N)CO [AMP, 2-methyl-2-amino-1-propanol, reference compound]
maximum growth slope [1, 8]: 0.32 OD per time | maximum growth slope [1, 9]: 0.069 OD per time | maximum growth slope ([1]; 2500 ppm amine, GROTAN 0 ppm): 1.065 OD per time | end-point optical density [2, 10]: 0.3 | end-point optical density [2, 11]: 0.4 | end-point optical density [2, 12]: 0.3 | end-point optical density [2, 13]: 0.4 | end-point optical density ([3]; amine 470 ppm): 2100 milliOD | end-point optical density ([3]; amine 940 ppm): 2200 milliOD | end-point optical density ([3]; amine 1880 ppm): 2100 milliOD | end-point optical density ([3]; amine 3750 ppm): 2000 milliOD | end-point optical density ([3]; amine 7500 ppm): 1700 milliOD | growth of Pseudomonas Aeruginosa (Table 1 entry) [4, 14]: 0.72 | growth of Pseudomonas Aeruginosa (Table 1 entry) [4, 15]: 0.72 | growth of Pseudomonas Aeruginosa (Table 1 entry) [4, 16]: 0.72 | growth of Pseudomonas Aeruginosa (Table 1 entry) [4, 17]: 0.31 | growth of Pseudomonas Aeruginosa (Table 1 entry) [4, 18]: 0.35 | growth of Pseudomonas Aeruginosa (Table 1 entry) ([4]; amine 2000 ppm, GROTAN 0 ppm): 0.72 | growth of Pseudomonas Aeruginosa (Table 1 entry) [4, 19]: 0.72 | growth of Pseudomonas Aeruginosa (Table 1 entry) [4, 20]: 0.69 | growth of Pseudomonas Aeruginosa (Table 1 entry) [4, 21]: 0.39 | growth of Pseudomonas Aeruginosa (Table 1 entry) [4, 22]: 0.30 | growth of Pseudomonas Aeruginosa (Table 1 entry) [4, 23]: 0.37 | growth of Pseudomonas Aeruginosa (Table 1 entry) ([4]; amine 4000 ppm, GROTAN 0 ppm): 1.12 | enhancement in the biocidal effect of GROTAN [4]: not seen | maximum growth slope [5, 24]: 0.667 OD per time | maximum growth slope [5, 25]: 0.508 OD per time | maximum growth slope [5, 26]: 0.407 OD per time | maximum growth slope ([5]; amine 1000 ppm, BIT 0 ppm): 0.478 OD per time | maximum growth slope [5, 27]: 0.361 OD per time | maximum growth slope [5, 28]: 0.320 OD per time | maximum growth slope [5, 29]: 0.228 OD per time | maximum growth slope ([5]; amine 2000 ppm, BIT 0 ppm): 0.29 OD per time | maximum growth slope [6, 30]: 0.345 | maximum growth slope [6, 31]: 0.327 | maximum growth slope [6, 32]: 0 | maximum growth slope [6, 33]: 0

CCCCNCCO [BAE, butylaminoethanol]
maximum growth slope [1, 8]: 0.082 OD per time | maximum growth slope [1, 9]: 0.0515 OD per time | maximum growth slope ([1]; 2500 ppm amine, GROTAN 0 ppm): 0.2 OD per time | MIC (estimate of the concentration range in which the amine starts to inhibit growth) ([7]; 72 hours): >4000 ppm | end-point optical density ([7]; amine 800 ppm): 0.7 milliOD | end-point optical density ([7]; amine 1200 ppm): 0.7 milliOD | end-point optical density ([7]; amine 2000 ppm): 0.6 milliOD | end-point optical density ([7]; amine 4000 ppm): 0.6 milliOD | end-point optical density [2, 10]: 0.3 | end-point optical density [2, 11]: 0.3 | end-point optical density [2, 12]: 0.2 | end-point optical density [2, 13]: 0.2 | end-point optical density ([3]; amine 470 ppm): 2200 milliOD | end-point optical density ([3]; amine 940 ppm): 2100 milliOD | end-point optical density ([3]; amine 1880 ppm): 2000 milliOD | end-point optical density ([3]; amine 3750 ppm): 1900 milliOD | end-point optical density ([3]; amine 7500 ppm): 1700 milliOD | growth of Pseudomonas Aeruginosa (Table 1 entry) [4, 14]: 0.49 | growth of Pseudomonas Aeruginosa (Table 1 entry) [4, 15]: 0.45 | growth of Pseudomonas Aeruginosa (Table 1 entry) [4, 16]: 0.35 | growth of Pseudomonas Aeruginosa (Table 1 entry) [4, 17]: 0.30 | growth of Pseudomonas Aeruginosa (Table 1 entry) [4, 18]: 0.36 | growth of Pseudomonas Aeruginosa (Table 1 entry) ([4]; amine 2000 ppm, GROTAN 0 ppm): 0.37 | growth of Pseudomonas Aeruginosa (Table 1 entry) [4, 19]: 0.35 | growth of Pseudomonas Aeruginosa (Table 1 entry) [4, 20]: 0.32 | growth of Pseudomonas Aeruginosa (Table 1 entry) [4, 21]: 0.25 | growth of Pseudomonas Aeruginosa (Table 1 entry) [4, 22]: 0.29 | growth of Pseudomonas Aeruginosa (Table 1 entry) [4, 23]: 0.36 | growth of Pseudomonas Aeruginosa (Table 1 entry) ([4]; amine 4000 ppm, GROTAN 0 ppm): 0.49 | enhancement in the biocidal effect of GROTAN [4]: provide an enhancement in the biocidal effect of GROTAN® | maximum growth slope [5, 24]: 0.317 OD per time | maximum growth slope [5, 25]: 0.353 OD per time | maximum growth slope [5, 26]: 0.281 OD per time | maximum growth slope ([5]; amine 1000 ppm, BIT 0 ppm): 0.333 OD per time | maximum growth slope [5, 27]: 0.134 OD per time | maximum growth slope [5, 28]: 0.000 OD per time | maximum growth slope [5, 29]: 0.000 OD per time | maximum growth slope ([5]; amine 2000 ppm, BIT 0 ppm): 0.000 OD per time | maximum growth slope [6, 30]: 0.083 | maximum growth slope [6, 31]: 0 | maximum growth slope [6, 32]: 0 | maximum growth slope [6, 33]: 0

OCCNCCO [DEA, diethanolamine]
maximum growth slope [1, 8]: 0.466 OD per time | maximum growth slope [1, 9]: 0.117 OD per time | maximum growth slope ([1]; 2500 ppm amine, GROTAN 0 ppm): 0.723 OD per time

NCCOCCO [DGA, diglycolamine, reference compound]
maximum growth slope [1, 8]: 0.1955 OD per time | maximum growth slope [1, 9]: 0.0725 OD per time | maximum growth slope ([1]; 2500 ppm amine, GROTAN 0 ppm): 0.796 OD per time | growth of Pseudomonas Aeruginosa (Table 1 entry) [4, 14]: 0.71 | growth of Pseudomonas Aeruginosa (Table 1 entry) [4, 15]: 0.70 | growth of Pseudomonas Aeruginosa (Table 1 entry) [4, 16]: 0.76 | growth of Pseudomonas Aeruginosa (Table 1 entry) [4, 17]: 0.32 | growth of Pseudomonas Aeruginosa (Table 1 entry) [4, 18]: 0.34 | growth of Pseudomonas Aeruginosa (Table 1 entry) ([4]; amine 2000 ppm, GROTAN 0 ppm): 0.76 | growth of Pseudomonas Aeruginosa (Table 1 entry) [4, 19]: 0.70 | growth of Pseudomonas Aeruginosa (Table 1 entry) [4, 20]: 0.69 | growth of Pseudomonas Aeruginosa (Table 1 entry) [4, 21]: 0.36 | growth of Pseudomonas Aeruginosa (Table 1 entry) [4, 22]: 0.29 | growth of Pseudomonas Aeruginosa (Table 1 entry) [4, 23]: 0.36 | growth of Pseudomonas Aeruginosa (Table 1 entry) ([4]; amine 4000 ppm, GROTAN 0 ppm): 0.68 | enhancement in the biocidal effect of GROTAN [4]: not seen
